From US20050282793A1, “Steroid prodrugs with androgenic action” (priority 2004, published 2005) come the findings set out here.

Data set [1] concerns gonadally intact, adult, sexually mature rats. Description: Test (III), oral treatment over 6 weeks. The class given is in vivo, rat. Here is the method: (§1) • Method: Adult male rats, of about 300 g of body weight, are castrated and treated orally over 7 days with MENT and compound 12 according to the invention. On the 8th day of the test, the animals are sacrificed, and the hormonal effects of the test substances are evaluated (growth of the accessory sex glands, reduction of the gonadotropic hormones in plasma, parameters of hepatic actions: effects on HDL lipoproteins, determination of MENT in the plasma). Test (III) on Gonadally Intact Adult Sexually Mature Rats Over 6 Weeks
• Method: Adult male rats of above 300 g of body weight are treated orally over 6 weeks with MENT and compounds 12 or 5 according to the invention. At the end of the test, the animals are sacrificed, and the hormonal effects of the test substances are evaluated (weight of the testes and the accessory sex glands, reduction of the gonadotropic hormones and testosterone in the plasma during the course of the test, parameters of hepatic actions: effects on HDL lipoproteins).

Data set [2] has as its system sexually immature, castrated male rats. The experiment in a line: Test (I), oral treatment over 7 days, evaluation on day 8. The class given is in vivo, rat. How it is done: Test (I) on Sexually Immature, Castrated Male Rats Over 8 Days
Method: Male rats weighing about 45 g of body weight are castrated and treated orally over 7 days with MENT and with compounds 12 or 18 according to the invention. On the 8th day of the test, the animals are sacrificed, and the hormonal effects of the test substances are evaluated (growth of the accessory sex glands, reduction of gonadotropic hormones in plasma, parameters of hepatic actions: effects on HDL lipoproteins).

Data set [3] concerns sexually mature, castrated male rats. The experiment in a line: Test (II), oral treatment over 7 days, evaluation on day 8. It counts as in vivo, rat. How it is done: Test (II) on Sexually Mature, Castrated Male Rats Over 8 Days
as §1

Data set [4] in a line: Determination of the erythrocyte/plasma distribution ratio. The note with it: freshly obtained, heparinized blood. It counts as in vitro ADME. Here is the method: Freshly obtained, heparinized blood is mixed with a defined amount of test substance. The concentration in the plasma obtained therefrom is measured. The erythrocyte/plasma distribution ratio is calculated from the measured concentration of the entire substance in plasma and the concentration that is used.

Data set [5] concerns erythrocytes. Description: Binding to erythrocytes: displacement of estradiol-3-sulfamate from the erythrocyte bond (RBA). Details: species or system human. The note with it: for RBA in Erythrocytes: human blood, displacement of 14C-labeled estradiol sulfamate, estradiol-3-sulfamate = 100. Here is the method: The SO2—NH2 group of the compounds according to the invention can result in a concentration in erythrocytes by binding to carboanhydrases. The displacement of estradiol-3-sulfamate from the erythrocyte bond by test substances is measured. Test preparation: human blood is mixed with a mixture that consists of ^14C-labeled and unlabeled estradiol sulfamate. The erythrocytes are saturated at the selected working point. The distribution in plasma/erythrocytes is 40:60. A second blood sample is mixed with a mixture that consists of ^14C-labeled estradiol sulfamate and unlabeled test substance. The relative binding affinity is calculated from the proportion of ^14C-labeled estradiol sulfamate in plasma: higher proportion=strong displacement of ^14C-estradiol sulfamate from the erythrocytes by the test substance=high binding affinity of the test substances to the erythrocytes.

Data set [6] concerns the target Human Carboanhydrase I (Homo sapiens, UniProt P00915). The experiment in a line: Carboanhydrase I inhibition (CO2 hydration). It counts as biochemical. Here is the method: Carboanhydrases catalyze the CO2 hydration.
Test preparation: A constant CO2 stream is directed by a buffer that was mixed with carboanhydrase I. The time that is required to reduce the pH within defined limits is a measuring parameter. This parameter reflects the formation of H2CO3 in the medium. IC50 inhibiting values are determined by test substances being pipetted into the test preparation.

The subject of data set [7] is accessory sex glands (prostate). Description: Hershberger Test (comparison of m- and p-substituted compound; test not specified). The class given is in vivo, rat. The note with it: m-substituted compound 12 compared to p-substituted compound 11.

Where two headings read alike, the source gives them in different places.

Sequence of Human Carboanhydrase I (P00915 whole entry): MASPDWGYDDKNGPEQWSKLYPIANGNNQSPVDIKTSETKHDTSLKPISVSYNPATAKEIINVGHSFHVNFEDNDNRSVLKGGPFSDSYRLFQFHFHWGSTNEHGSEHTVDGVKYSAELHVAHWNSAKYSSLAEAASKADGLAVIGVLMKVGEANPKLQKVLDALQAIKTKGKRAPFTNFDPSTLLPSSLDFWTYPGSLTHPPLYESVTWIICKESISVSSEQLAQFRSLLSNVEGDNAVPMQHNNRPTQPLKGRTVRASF

On to `C[C@@H]1CC2=CC(=O)CC[C@@H]2[C@H]2CC[C@]3(C)[C@@H](O)CC[C@H]3[C@@H]21` [MENT, 7α-methyl-19-nortestosterone, reference compound], for which, in data set [1], the “effects on the accessory sex glands (weights of seminal vesicles and prostates)” value is reported as “A corresponding effect even in the case of extremely high dosage did not occur”; the “reduction of HDL” value is reported as “even more effective than the substances according to the invention”. Moreover, in data set [2], the “growth of the accessory sex glands” value is recorded as “only marginal effects” and the “reduction of HDL” value was “even more active than the substances according to the invention”. In addition, in data set [3] (oral, 7 days), the “growth of the accessory sex glands” value is “only marginal effects” and the “reduction of HDL” value is on record as “even more active than the substances according to the invention”.

Take `C[C@]12CC[C@H]3[C@@H](CCC4=CC(=O)CC[C@@]43C)[C@@H]1CC[C@@H]2OC(=O)c1ccc(S(N)(=O)=O)cc1` [Compound 1, 3-Oxoandrost-4-en-17β-yl 4′-sulfamoyl benzoate]: the “Distribution Ratio with Erythrocytes/Plasma” value in data set [4] turned out to be 9. Besides, the “RBA in Erythrocytes” value in data set [5] was 48. Besides, the IC50 in data set [6] was found to be 370 nM.

As for `C[C@]12CC[C@H]3[C@@H](CCC4=CC(=O)CC[C@@]43C)[C@@H]1CC[C@@H]2OC(=O)c1cc(S(N)(=O)=O)ccc1O` [Compound 18, 3-Oxoandrost-4-en-17β-yl 2′-hydroxy-5′-sulfamoyl Benzoate], the “Distribution Ratio with Erythrocytes/Plasma” value in data set [4] is reported as 2. Moreover, in data set [2], the “growth of the accessory sex glands” value was “strong dose-dependent effects on the growth of the accessory sex glands”. Besides, the “RBA in Erythrocytes” value in data set [5] is recorded as 1.4.

As for `C[C@]12CC[C@H]3[C@@H](CCC4=CC(=O)CC[C@@H]43)[C@@H]1CC[C@@H]2OC(=O)c1ccc(S(N)(=O)=O)cc1` [Compound 8, 3-Oxoestr-4-en-17β-yl 4′-sulfamoyl benzoate], the “Distribution Ratio with Erythrocytes/Plasma” value in data set [4] turned out to be 7. For the same compound, the “RBA in Erythrocytes” value in data set [5] amounted to 24.

As to `COc1ccc(S(N)(=O)=O)cc1C(=O)O[C@H]1CC[C@H]2[C@@H]3CCC4=CC(=O)CC[C@]4(C)[C@H]3CC[C@]12C` [Compound 4, 3-Oxoandrost-4-en-17β-yl 2′-methoxy-5′-sulfamoyl benzoate], the “Distribution Ratio with Erythrocytes/Plasma” value in data set [4] amounted to 2. Further, the “RBA in Erythrocytes” value in data set [5] is listed as 0.8.

`C[C@@H]1CC2=CC(=O)CC[C@@H]2[C@H]2CC[C@]3(C)[C@@H](OC(=O)c4ccc(S(N)(=O)=O)cc4)CC[C@H]3[C@@H]21` [Compound 11, 3-Oxo-7α-methylestr-4-en-17β-yl 4′-sulfamoyl benzoate]: the IC50 in data set [6] (human carboanhydrase I, read-out: CAI IC50) was in the range of 200 to 400 nM.

Take `C[C@@H]1CC2=CC(=O)CC[C@@H]2[C@H]2CC[C@]3(C)[C@@H](OC(=O)c4cccc(S(N)(=O)=O)c4)CC[C@H]3[C@@H]21` [Compound 12, 3-Oxo-7α-methylestr-4-en-17β-yl 3′-sulfamoyl benzoate]: the antigonadotropic effects entry in data set [1] is listed as “Superior antigonadotropic effects”. Besides, the “effects on the accessory sex glands (weights of seminal vesicles and prostates)” value in data set [1] was “induced in a dose-dependent way an increase of the weights of the seminal vesicles and prostates beyond the level of intact controls”. For the same compound, the “Distribution Ratio with Erythrocytes/Plasma” value in data set [4] came to 3. Also, the “growth of the accessory sex glands” value in data set [2] is “strong dose-dependent effects on the growth of the accessory sex glands”; in data set [3] (oral, 7 days), “unexpectedly strong, dose-dependent effects on the growth of the accessory sex glands”. Also, the “RBA in Erythrocytes” value in data set [5] amounted to 2.1. Moreover, the “bond strength to the erythrocytes (in words)” value in data set [5] (m-substituted versus 4'-sulfamoyl benzoates) is “lower bond strength to the erythrocytes”. In data set [6], this compound displayed an IC50 of 600 nM. Further, in data set [3] (after oral administration), the “levels of MENT in the plasma” value is on record as “significantly higher levels of MENT are achieved in the plasma than after the administration of MENT itself”. Moreover, the “activity in the Hershberger Test” value in data set [7] is given as “higher activity in the Hershberger Test compared to the p-substituted compound 11”.

For `C[C@]12CC[C@H]3[C@@H](CCC4=CC(=O)CC[C@@]43C)[C@@H]1CC[C@@H]2OC(=O)c1cccc(S(N)(=O)=O)c1` [Compound 5, 3-Oxoandrost-4-en-17β-yl 3′-sulfamoyl benzoate], in data set [1], the “changes in hepatic parameters” value is “especially small changes in hepatic parameters”. In addition, the “Distribution Ratio with Erythrocytes/Plasma” value in data set [4] is listed as 2. Also, the “RBA in Erythrocytes” value in data set [5] worked out at 1.3. The same compound displayed an IC50 in data set [6] of 880 nM.

On to `C[C@]12CC[C@@H]3c4ccc(OS(N)(=O)=O)cc4CC[C@H]3[C@@H]1CC[C@@H]2O` [Estradiol-3-sulfamate, reference compound], for which the “Distribution Ratio with Erythrocytes/Plasma” value in data set [4] was 48. For the same compound, the “RBA in Erythrocytes” value in data set [5] came to 100.

For the compound `C[C@]12CC[C@H]3[C@@H](CCC4=CC(=O)CC[C@@]43C)[C@@H]1CC[C@@H]2OC(=O)CCc1ccc(S(N)(=O)=O)cc1` [Compound 14, 3-Oxoandrost-4-en-17β-yl 4′-sulfamoylphenylpropionate], in data set [4], the “Distribution Ratio with Erythrocytes/Plasma” value was 4. Also, in data set [5], the “RBA in Erythrocytes” value is reported as 3.4.
